Like-named read-outs stand apart in the source and are kept apart here.
How the values were obtained:
MES-SA/Dx5 cells = experiment: PrestoBlue viability assay, MES-SA/Dx5 cells (MDR, P-gp positive); conditions: for IC50: Homo sapiens
MES-SA cells = experiment: PrestoBlue viability assay, MES-SA cells; conditions: Homo sapiens, MES-SA
[1] = water, 25 °C; ref 15 (Pape et al., Cancers 2021); cited from earlier work
A431-B1 cells = experiment: PrestoBlue viability assay, A431-B1 (A431-ABCB1) cells
A431 cells = experiment: PrestoBlue viability assay, A431 cells; conditions: Homo sapiens

Oc1c(CN2CCOCC2)cc(Cl)c2cccnc12 [Compound 29]
IC50 (MES-SA/Dx5 cells; MES-SA/Dx5, 72 h, read-out: IC50 / μM MES-SA/Dx5, absence of TQ, 72 h incubation): 0.82 ± 0.06 µM | IC50 (MES-SA/Dx5 cells; MES-SA/Dx5, read-out: IC50 / μM MES-SA/Dx5 (values in parentheses), presence of 1 μM P-gp inhibitor tariquidar (TQ)): 1.17 ± 0.01 µM | IC50 (MES-SA/Dx5 cells; MES-SA/Dx5, read-out: pIC50 value MES-SA/Dx5, MES-SA/Dx5 cells, without TQ (converted)): 0.813 µM | SR_TQ (MES-SA/Dx5 cells; selectivity ratio MES-SA vs MES-SA/Dx5, with TQ): 1.41 | SR (MES-SA/Dx5 cells; selectivity ratio MES-SA vs MES-SA/Dx5, without TQ): 1.86 | IC50 (MES-SA cells; 72 h, read-out: IC50 / μM MES-SA, absence of TQ, 72 h incubation): 1.52 ± 0.07 µM | IC50 (MES-SA cells; read-out: IC50 / μM MES-SA (values in parentheses), presence of 1 μM P-gp inhibitor tariquidar (TQ)): 1.66 ± 0.02 µM | IC50 (MES-SA cells; read-out: pIC50 value MES-SA+TQ, MES-SA cells, with TQ (converted)): 1.66 µM | IC50 (MES-SA cells; read-out: pIC50 value MES-SA, MES-SA cells, without TQ (converted)): 1.51 µM | pKa (NquinH+), experimental [1]: < 2 | IC50 (A431-B1 cells; 72 h, read-out: IC50 / µM A431-B1, 72 h incubation): 2.42 ± 0.29 µM | IC50 (A431-B1 cells; read-out: pIC50 A431-B1, SARM figure (converted)): 2.4 µM | IC50 (A431 cells; A-431, 72 h, read-out: IC50 / µM A431, 72 h incubation): 6.6 ± 3.57 µM | IC50 (A431 cells; A-431, read-out: pIC50 A431, SARM figure (converted)): 5.75 µM

From paper PMC9189845, “Structure–Activity Relationships of 8-Hydroxyquinoline-Derived Mannich Bases with Tertiary Amines Targeting Multidrug-Resistant Cancer” (Journal of Medicinal Chemistry, 2022)
